Results reported in PMC7932555, “A diffusible signal factor of the intestine dictates Salmonella invasion through its direct control of the virulence activator HilD” (PLoS Pathogens, 2021).
Positions count from the first letter of the chain named. Several values for one entry are separate records, joined by “and”; a condition that tells them apart may be missing. Equal values may be shown once.

Key:
HilD^Q290A [1] = biological target: T1, HilD^Q290A (Salmonella typhimurium, UniProt P0CL08, Q290A); assay: ELISA binding of fatty acid to HilD Q290A
T1 construct: made in house; host or cells: E. coli BL21 (DE3)
T1 sequence (P0CL08 1-309 Q290A): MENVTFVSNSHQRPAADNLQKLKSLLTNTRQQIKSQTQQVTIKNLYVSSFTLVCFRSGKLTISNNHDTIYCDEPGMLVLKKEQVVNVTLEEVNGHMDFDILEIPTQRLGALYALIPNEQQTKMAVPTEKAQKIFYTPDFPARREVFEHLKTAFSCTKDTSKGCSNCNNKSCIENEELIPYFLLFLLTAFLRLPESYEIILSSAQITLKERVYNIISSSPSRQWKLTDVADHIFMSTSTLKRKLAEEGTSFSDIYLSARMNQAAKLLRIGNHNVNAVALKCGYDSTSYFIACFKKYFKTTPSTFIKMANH
Method: (§1) hilD or its mutated sequences were amplified and cloned into pET15b(+) under an N-terminal 6xHis tag. The constructs were transformed into E. coli BL21 (DE3) for expression. Transformants were induced with 5 mM IPTG for 4 hours. Cultures were centrifuged, lysed and treated with TALON beads as described above. Bound protein was eluted by applying 1 ml elution buffer to the columns. Elution was confirmed by SDS-PAGE. Following confirmation, eluted samples were dialyzed overnight in dialysis buffer (50 mM sodium phosphate, 300 mM NaCl, 10% glycerol). Protein concentration and quality were assessed by Bradford estimation and SDS-PAGE.
(§2) 96-well polystyrene plates were coated with 10 μM fatty acid in coating buffer (0.05 M sodium carbonate-bicarbonate, pH 9.3) and incubated overnight at 4°C. Wells were washed three times with PBS, followed by addition of blocking buffer (1% Ficoll 400 in PBS). After blocking, wells were washed three times with PBS, and different concentrations of proteins in blocking buffer were added and incubated at room temperature for 2 hours. […] After color development, reaction was stopped with 1N sulfuric acid and read spectrophotometrically at 490 nm. Binding was analyzed in GraphPad Prism.
(§3) All experiments were repeated twice and data of representative experiment have been shown. Kd was calculated by using Total One-Site binding in GraphPad Prism. […]

sipB::lacZY = sipB::lacZY reporter β-galactosidase assay in strains expressing wild type or mutant HilD; type: cell-based; details: 20 μM fatty acid (mix: 20 μM of each)
Source text: To test the effect of mutations in hilD, we initially constructed a background Salmonella strain without chromosomal hilC, rtsA and hilD and fused sipB to lacZY to assess SPI-1 expression. hilD with a C-terminal 3XFLAG tag was cloned into pWSK29 under control of the tetRA promoter for tetracycline-inducible expression. This plasmid was subjected to site-directed mutagenesis at specific nucleotides to change selected amino acids to alanine, using the Agilent QuikChange II Site-Directed Mutagenesis kit following their protocol. Mutations were confirmed by DNA sequencing.
Salmonella strains were inoculated into LB buffered with 100 mM MOPS [3-(N-morpholino) propanesulphonic acid] pH 6.7, with necessary antibiotics, and fatty acids or control solvents to be tested. Cultures were incubated at 37° C without aeration overnight, and assays were performed using an established protocol.

HilD^N44A [2] = biological target: T2, HilD^N44A (Salmonella typhimurium, UniProt P0CL08, N44A); assay: EMSA of hilA promoter DNA with HilD N44A; type: biochemical; details: 10 nM hilA promoter DNA, 30 μM fatty acid
T2 construct: made in house; host or cells: E. coli BL21 (DE3)
T2 sequence (P0CL08 1-309 N44A): T1 sequence (P0CL08 1-309 Q290A) with N44A, A290Q
Method: (§4) These were performed as previously described. Briefly, 10 nM hilA promoter DNA (-286 to +31) was mixed with 150 nM HilD in a binding buffer (100 mM Tris pH 7.5, 10 mM EDTA, 1M KCl, 1 mM DTT, 50% v/v glycerol). Fatty acids or control solvents were added at various concentrations. Binding reaction was performed at room temperature for 1 hour. Dye solution was added to final concentration of 1X and samples were separated on 10% acrylamide gels. DNA was stained using SYBR Safe and visualized in BioRad GelDoc imaging system.

wild type HilD [3] = biological target: T3, wild type HilD (Salmonella typhimurium, UniProt P0CL08); assay: EMSA of hilA promoter DNA with wild type HilD; type: biochemical; details: wild type HilD 150 nM; 10 nM hilA promoter DNA; increasing concentrations or 30 μM fatty acid
T3 construct: made in house; host or cells: E. coli BL21 (DE3)
T3 sequence (P0CL08 1-309): T1 sequence (P0CL08 1-309 Q290A) with A290Q
Method: as §4

wild type HilD [4] = biological target: T3, wild type HilD; assay: ELISA binding of fatty acid to wild type HilD; details: plates pre-adsorbed with 10 μM fatty acid, non-linear regression
Method: as §1, §2, §3

HilD^N44A [5] = biological target: T2, HilD^N44A; assay: ELISA binding of fatty acid to HilD N44A
Method: as §1, §2, §3

HilD^Q290A [6] = biological target: T1, HilD^Q290A; assay: EMSA of hilA promoter DNA with HilD Q290A; type: biochemical; details: 10 nM hilA promoter DNA, 30 μM fatty acid
Method: as §4

[7] = strain expressing wild type HilD

Compound	Kd (HilD^Q290A [1]; plates pre-adsorbed with 10 μM fatty acid) [µM]	repression of sipB expression (sipB::lacZY; strain expressing HilD K43A)	repression of sipB expression (sipB::lacZY; strain expressing HilD K293A)	repression of sipB expression (sipB::lacZY; strain expressing HilD K294A)	repression of sipB expression (sipB::lacZY; strain expressing HilD Q290A)	repression of sipB expression (sipB::lacZY; [7])	effect on HilD binding to hilA promoter DNA (HilD^N44A [2])	effect on HilD binding to hilA promoter DNA (wild type HilD [3])	Kd (wild type HilD [4]) [µM]	binding in ELISA (in words) (HilD^N44A [5])	binding in ELISA (in words) (HilD^Q290A [1])	effect on HilD binding to hilA promoter DNA (HilD^Q290A [6])
CCCCCCCCCCCCC/C=C\C(=O)O [c2-HDA, cis-2-hexadecenoic acid]	9.7	Repression by c2-HDA, however, remained unaffected	No significant repression	No significant repression	Repression by c2-HDA, however, remained unaffected	~11 fold and 10.9 fold	retained its binding of target DNA	progressively impaired interaction of wild type HilD with the DNA target	3.5	essentially no binding		
CCCCCCCCCCCCC/C=C/C(=O)O [t2-HDA, trans-2-hexadecenoic acid]						5.2 fold	did not disrupt DNA binding	efficiently reduced the DNA binding capacity	9.8	essentially no binding	failed to bind	did not disrupt DNA binding
